Details of data set [1]: method as in PMID 34865639. The settings on record: cited from earlier work.
In a further data set the test system is L6 rat myoblast cells. In words: Cytotoxicity evaluation in L6 cells (resazurin). Conditions: Rattus norvegicus, Myoblast; 72 h, resazurin; read-out: EC50 L6. It is filed as cell-based. As for the experimental part: One hundred microliters of supplemented RPMI 1640 medium containing the compounds and controls were added to L6 rat myoblast cells previously seeded (4,000 cells per well) in a 96-well microplate. After 72 hours at 37°C the viable cell number was determined by resazurin reduction. 20 μL of resazurin at 0.11 mg/mL in PBS 1X were added to each well and incubated in the dark for 2 hours at 37°C. Cell viability was estimated by measuring the final fluorescence at 570–590 nm in a Tecan Infinite F200 plate reader.
(Alamar Blue is a resazurin reagent that responds to reducing activity.)

A further data set deals with Plasmodium berghei. The arrangement: method as in PMID 34865639. Conditions: Plasmodium berghei murine model; cited from earlier work.
Data set [2] relates to T. cruzi Tulahuen C4 intracellular amastigotes. In words: β-D-galactosidase transgenic T. cruzi assay (intracellular amastigotes in L6 cells, CPRG). It is filed as cell-based. Conditions: Trypanosoma cruzi. How it is done:
The Trypanosoma cruzi Tulahuen strain used is a genetically modified strain that expresses the Escherichia coli β-galactosidase gene, lacZ [31]. It was kindly supplied by Marcel Kaiser (Swiss Tropical and Public Health Institute). The T. cruzi Tulahuen C4 strain was cultured in RPMI-1640 supplemented with 10% inactivated FBS (iFBS), 1.7 mM L-glutamine, 100 U/mL penicillin, and […] at 37°C and 5% CO2. L6 rat skeletal muscle cells were purchased from ATCC (reference CRL-1458) and used as host cells for infection with transgenic T. cruzi trypomastigotes. Epimastigotes were obtained by differentiation in LIT medium with 10% iFBS at 28°C from trypomastigote forms.
A Thermo Scientific Multidrop Combi dispenser was used to dispense 55 μL of T. cruzi infected L6 cells (2 ×10^3 cells per well) into 384-well Corning assay plates already containing 5 μL of each compound at concentrations ranging from 0.0015 to 50 μM and controls. The plates were incubated at 37°C for 96 hours upon which 15 μL of lysis buffer (0.5 mM CPRG, 0.5% NP40) were added to each well and further incubated for 4 hours in the dark. Absorbance at 585 nm was measured in a Perkin Elmer Envision plate reader.

In general, EC50 refers to the concentration at which the effect is half-maximal. The term inhibition denotes the relative decrease from the control value, in per cent. In the case of `C/C1=C\[C@H](C)[C@@H](O)C[C@@H](O)/C(C)=C/[C@H](C)C[C@@H](C)CC[C@@H]([C@@H](C)C(=O)O)OC(=O)[C@@H](C)C1` [Strasseriolide D, strasseriolide D], the liver microsome clearance entry in data set [1] is reported as “low”. Also, the EC50 is more than 100 µM in the data set on L6 rat myoblast cells and 5.61 µM in data set [2] (Tulahuen C4 in L6 cells, 96 h, CPRG). Further, in the data set with Plasmodium berghei, the “in vivo antiprotozoal activity” value is recorded as “exhibit in vivo antiprotozoal activity”. Besides, the inhibition at 0.00152588 µM in data set [2] (TULAHUEN, L6, T. cruzi amastigotes, 96-hour treatment, 0.00152588 µM, read-out: Growth inhibition (%) Average) is 7.88%. Moreover, the inhibition at 0.00305176 µM in data set [2] (TULAHUEN, L6, T. cruzi amastigotes, 96-hour treatment, 0.00305176 µM, read-out: Growth inhibition (%) Average) turned out to be 6.33%. For the same molecule, the inhibition at 0.00610352 µM in data set [2] (TULAHUEN, L6, T. cruzi amastigotes, 96-hour treatment, 0.00610352 µM, read-out: Growth inhibition (%) Average) was determined as 2.28%. In addition, in data set [2] (TULAHUEN, L6, T. cruzi amastigotes, 96-hour treatment, 0.012207 µM, read-out: Growth inhibition (%) Average), the inhibition at 0.012207 µM was 4.26%. Further, in data set [2] (TULAHUEN, L6, T. cruzi amastigotes, 96-hour treatment, 0.0244141 µM, read-out: Growth inhibition (%) Average), the inhibition at 0.0244141 µM was 4.84%. For the same molecule, the inhibition at 0.0488281 µM in data set [2] (TULAHUEN, L6, T. cruzi amastigotes, 96-hour treatment, 0.0488281 µM, read-out: Growth inhibition (%) Average) was 2.75%. The inhibition at 0.0976562 µM in data set [2] (TULAHUEN, L6, T. cruzi amastigotes, 96-hour treatment, 0.0976562 µM, read-out: Growth inhibition (%) Average) came out at 2.22%. For the same molecule, the inhibition at 0.195312 µM in data set [2] (TULAHUEN, L6, T. cruzi amastigotes, 96-hour treatment, 0.195312 µM, read-out: Growth inhibition (%) Average) was found to be 7.23%. For the same molecule, the inhibition at 0.390625 µM in data set [2] (TULAHUEN, L6, T. cruzi amastigotes, 96-hour treatment, 0.390625 µM, read-out: Growth inhibition (%) Average) is 4.8%. Besides, the inhibition at 0.78125 µM in data set [2] (TULAHUEN, L6, T. cruzi amastigotes, 96-hour treatment, 0.78125 µM, read-out: Growth inhibition (%) Average) amounted to 4.2%. Besides, in data set [2] (TULAHUEN, L6, T. cruzi amastigotes, 96-hour treatment, 1.5625 µM, read-out: Growth inhibition (%) Average), the inhibition at 1.5625 µM turned out to be 8.54%. The inhibition at 3.125 µM in data set [2] (TULAHUEN, L6, T. cruzi amastigotes, 96-hour treatment, 3.125 µM, read-out: Growth inhibition (%) Average) was 21.2%. In addition, in data set [2] (TULAHUEN, L6, T. cruzi amastigotes, 96-hour treatment, 6.25 µM, read-out: Growth inhibition (%) Average), the inhibition at 6.25 µM worked out at 66.1%. In addition, the inhibition at 12.5 µM in data set [2] (TULAHUEN, L6, T. cruzi amastigotes, 96-hour treatment, 12.5 µM, read-out: Growth inhibition (%) Average) came to 100%. In addition, the inhibition at 25 µM in data set [2] (TULAHUEN, L6, T. cruzi amastigotes, 96-hour treatment, 25 µM, read-out: Growth inhibition (%) Average) came to 112%. In addition, the inhibition at 50 µM in data set [2] (TULAHUEN, L6, T. cruzi amastigotes, 96-hour treatment, 50 µM, read-out: Growth inhibition (%) Average) amounted to 113%.
